In patent publication US7375220B2, “Method of treating diseases and conditions associated with an altered level of amyloid β peptides and new enolcarboxamide compounds” (Boehringer Ingelheim Vetmedica GmbH, priority 2004, dated 2008):

Key:
[1] = tested on: Aβ42; settings: according to table 3 of WO 01/78721; cited from earlier work

Row | melting point [°C] | SMILES | Aβ42 level [1]
1 | 198 to 199 | O=C(Nc1ccccc1C(F)(F)F)C1C(=O)N(Cc2ccc(F)cc2)S(=O)(=O)c2ccc(Cl)cc21 (centres unmarked) [Example 14, 6-Chloro-3,4-dihydro-2-(4-fluorobenzyl)-3-oxo-2H-1,2-benzothiazine-4-(2-trifluoromethyl)carboxanilide 1,1-dioxide] | 
2 | 106 to 108 | CN1C(=O)C(C(=O)Nc2ccc(Cl)cc2)c2ccc3c(c2S1(=O)=O)CCCC3 (centres unmarked) [Example 13, 3,4,7,8,9,10-Hexahydro-2-methyl-3-oxo-2H-naphtho[2,1-e]-1,2-thiazine-4-(4-chloro)carboxanilide 1,1-dioxide] | 
3 | 183 to 184 | O=C(Nc1cccc(C(F)(F)F)c1)C1C(=O)N(Cc2ccc(F)cc2)S(=O)(=O)c2ccc(Cl)cc21 (centres unmarked) [Example 15, 6-Chloro-3,4-dihydro-2-(4-fluorobenzyl)-3-oxo-2H-1,2-benzothiazine-4-(3-trifluoromethyl)carboxanilide 1,1-dioxide] | 

More lines, now with the values behind:

Row | SMILES | melting point [°C] | Aβ42 level [1]
4 | CN1C(C(=O)Nc2ccccn2)=C(O)c2ccccc2S1(=O)=O [piroxicam] |  | do not lower or even increase the Aβ42 level
5 | Cc1cc(NC(=O)C2=C(O)c3ccccc3S(=O)(=O)N2C)no1 [isoxicam] |  | do not lower or even increase the Aβ42 level
